Usually MIC stands for the least concentration at which growth counts as inhibited.

In brackets after ≈: the same amount, converted by molar mass. Activity calls are given as the source filed them. The rule behind the calls is not given here.

Series [1] relates to Staphylococcus aureus. Put plainly: Antibacterial activity against methicillin-resistant Staphylococcus aureus XJ036 assessed as inhibition of bacterial growth incubated for 18 hrs by two fold serial dilution assay. The class given is functional.
The test system of series [2] is Staphylococcus aureus. The series can be described thus: Antibacterial activity against Staphylococcus aureus Newman assessed as inhibition of bacterial growth incubated for 18 hrs by two fold serial dilution assay. The format is functional.
Series [3] deals with Staphylococcus aureus. The series can be described thus: Antibacterial activity against methicillin-resistant Staphylococcus aureus NRS-70 assessed as inhibition of bacterial growth incubated for 18 hrs by two fold serial dilution assay. The class given is functional.
Series [4] has as its system Staphylococcus aureus. The series can be described thus: Antibacterial activity against Staphylococcus aureus Newman assessed as fold increase in inhibition of bacterial growth incubated for 18 hrs by two fold serial dilution assay relative to (S)-4-((1S,3aR,3bR,5aR,12aR,12bR,14R,14aR)-14-hydroxy-3a,3b,6,6,12a-pentamethyl-1,2,3,3a,3b,4,5,5a,6,7,12,12a,12b,13,14,14a-hexadecahydrocyclopenta[5,6]naphtho[2,1-b]carbazol-1-yl)pentane-1,4-diol. The format is functional.

Series [5] has as its system Staphylococcus aureus. Put plainly: Antibacterial activity against methicillin-resistant Staphylococcus aureus USA300 assessed as inhibition of bacterial growth incubated for 18 hrs by two fold serial dilution assay. The class given is functional.
The subject of series [6] is Staphylococcus aureus. Put plainly: Antibacterial activity against methicillin-resistant Staphylococcus aureus NRS-1 assessed as inhibition of bacterial growth incubated for 18 hrs by two fold serial dilution assay. The class given is functional.
Series [7] deals with Staphylococcus aureus. The series can be described thus: Antibacterial activity against methicillin-resistant Staphylococcus aureus XJ017 assessed as inhibition of bacterial growth incubated for 18 hrs by two fold serial dilution assay. The format is functional.
For series [8], the system named is Staphylococcus aureus. Put plainly: Antibacterial activity against methicillin-resistant Staphylococcus aureus USA300 infected in zebrafish assessed as increase in survival rate at 25 mg/kg,ip administration measured for 5 days. The format is functional, organism-based. The settings on record: time 5.0 day.
In series [9] the test system is Staphylococcus aureus. The series can be described thus: Antibacterial activity against methicillin-resistant Staphylococcus aureus NRS-108 assessed as inhibition of bacterial growth incubated for 18 hrs by two fold serial dilution assay. The class given is functional.
The nature of series [10]: Toxicity in Zebrafish at 25 to 75 mg/kg,ip administration measured upto 120 hrs. The format is organism-based, Danio rerio. The settings on record: in vivo, dose 25-75 mg/kg.
The test system of series [11] is Staphylococcus aureus. Put plainly: Antibacterial activity against methicillin-resistant Staphylococcus aureus NRS-100 assessed as inhibition of bacterial growth incubated for 18 hrs by two fold serial dilution assay. The format is functional.
The test system of series [12] is Staphylococcus aureus. The series can be described thus: Antibacterial activity against methicillin-resistant Staphylococcus aureus USA300 infected in zebrafish assessed as increase in survival rate at 50 mg/kg,ip administration measured for 5 days relative to Vancomycin. The class given is functional, organism-based. Conditions: time 5.0 day.
In series [13] the test system is Staphylococcus aureus. The series can be described thus: Antibacterial activity against methicillin-resistant Staphylococcus aureus NRS-271 assessed as inhibition of bacterial growth incubated for 18 hrs by two fold serial dilution assay. The format is functional.
For series [14], the system named is Staphylococcus aureus. The series can be described thus: Antibacterial activity against methicillin-resistant Staphylococcus aureus USA300 assessed as fold increase in inhibition of bacterial growth incubated for 18 hrs by two fold serial dilution assay relative to (S)-4-((1S,3aR,3bR,5aR,13aR,13bR,15R,15aR)-15-hydroxy-3a,3b,6,6,13a-pentamethyl-2,3,3a,3b,4,5,5a,6,13,13a,13b,14,15,15a-tetradecahydro-1H-cyclopenta[5,6]naphtho[1,2-b]phenazin-1-yl)pentane-1,4-diol. The format is functional.

Take `CC1(C)c2nc3ccccc3nc2C[C@]2(C)[C@H]3C[C@@H](O)[C@@H]4[C@@H]([C@@](C)(O)CCC(=O)Nc5nccs5)CC[C@@]4(C)[C@]3(C)CC[C@@H]12`: the minimal inhibitory concentration (MIC) worked out at 1 µg/mL (≈ 1.62 µM) in the series with Staphylococcus aureus [1]; 1 µg/mL (≈ 1.62 µM) in the series with Staphylococcus aureus [2]; 1 µg/mL (≈ 1.62 µM) in the series on Staphylococcus aureus [3]; 1 µg/mL (≈ 1.62 µM) in the series with Staphylococcus aureus [5]; 1 µg/mL (≈ 1.62 µM) in the series on Staphylococcus aureus [6]; 0.5 µg/mL (≈ 0.811 µM) with Staphylococcus aureus [7]. Also, the figures for the minimal inhibitory concentration (MIC) with Staphylococcus aureus [9], in the series on Staphylococcus aureus [11] and in the series on Staphylococcus aureus [13] were 2 µg/mL (≈ 3.24 µM), 4 µg/mL (≈ 6.48 µM) and 1 µg/mL (≈ 1.62 µM), respectively. For the same compound, the “fold change (FC)” value in the series with Staphylococcus aureus [4] is given as 4. Further, the outcome with Staphylococcus aureus [8] and in the series on Staphylococcus aureus [12] was Active. Besides, the Activity result in [10] was “Non-Toxic”.

`CC1(C)c2nc3ccccc3nc2C[C@]2(C)[C@H]3C[C@@H](O)[C@@H]4[C@@H]([C@@](C)(O)CCC(N)=O)CC[C@@]4(C)[C@]3(C)CC[C@@H]12`: the minimum inhibitory concentration (MIC) with Staphylococcus aureus [1], in the series with Staphylococcus aureus [2], with Staphylococcus aureus [3], in the series on Staphylococcus aureus [5], in the series on Staphylococcus aureus [6] and with Staphylococcus aureus [7] was 4 µg/mL (≈ 7.49 µM) throughout. Besides, the MIC with Staphylococcus aureus [9], in the series on Staphylococcus aureus [11] and in the series on Staphylococcus aureus [13] was 4 µg/mL (≈ 7.49 µM) in each case. Moreover, the “fold change (FC)” value with Staphylococcus aureus [14] stood at 2.

Consider `CC1(C)c2nc3ccccc3nc2C[C@]2(C)[C@H]3C[C@@H](O)[C@@H]4[C@@H]([C@@](C)(O)CCC(=O)Nc5cccnc5)CC[C@@]4(C)[C@]3(C)CC[C@@H]12`, for which the MIC with Staphylococcus aureus [1] is 4 µg/mL (≈ 6.55 µM); with Staphylococcus aureus [2], 2 µg/mL (≈ 3.27 µM); in the series on Staphylococcus aureus [3] it was 8 µg/mL (≈ 13.1 µM); in the series with Staphylococcus aureus [5], 4 µg/mL (≈ 6.55 µM); in the series on Staphylococcus aureus [6], > 64 µg/mL; in the series on Staphylococcus aureus [7] it was 16 µg/mL (≈ 26.2 µM). Also, the MIC with Staphylococcus aureus [9] is 8 µg/mL (≈ 13.1 µM); in the series with Staphylococcus aureus [11], 8 µg/mL (≈ 13.1 µM); in the series with Staphylococcus aureus [13], 16 µg/mL (≈ 26.2 µM).
